The test system of data set [1] is primary human blood monocytes (hPBMC). Description: TNF-alpha induction in primary human blood monocytes (hPBMC). The format is cell-based. As to conditions: for TNF-alpha induction: human primary blood monocytes; for TNF-α Induction: second word of the cell IFN-α/TNF-α Induction (Yes/No). As for the experimental part: (§1) siRNAs were tested for activation of the immune system in primary human blood monocytes (hPBMC). […] However, chemically modified versions of this sequence (AD-1a2, AD-1a3, AD-1a5, and AD-1a4) as well as AD-2a1 were negative for both IFN-alpha and TNF-alpha induction in these same assays (see Table 5, and FIGS. 13A and 13B). Thus chemical modifications are capable of dampening both IFN-alpha and TNF-alpha responses to siRNA molecules.

In the next data set the test system is PCSK9. Description: Total serum cholesterol in rats after LNP01 formulated PCSK9 siRNA (duration of action). The data set is classed as in vivo, rat. As to conditions: versus PBS or control siRNA. How it is done:
Rats were treated via tail vein injection with 5 mg/kg of LNP01-10792 (Formulated ALDP-10792). Blood was drawn at the indicated time points (see Table 3) and the amount of total cholesterol compared to PBS treated animals was measured by standard means. Total cholesterol levels decreased at day two ˜60% and returned to baseline by day 28.
To test if acute silencing of the PCSK9 transcript by a PCSK9 siRNA (and subsequent PCSK9 protein down-regulation), would result in acutely lower total cholesterol levels, siRNA molecule AD-1a2 (AD-10792) was formulated in an LNP01 lipidoid formulation. Liposomal formulated siRNA duplex AD-1a2 (LNP01-1a2) was injected via tail vein in low volumes (˜0.2 ml for mouse and ˜1.0 ml for rats) at different doses into C57/BL6 mice or Sprague Dawley rats.
Down-modulation of total cholesterol in rats has been historically difficult as cholesterol levels remain unchanged even at high doses of HMG-CoA reductase inhibitors. […] Rats were dosed with a single injection of LNP01-a2 via tail vein at 1, 2.5 and 5 mg/kg. Liver tissue and blood were harvested 72 hours post-injection. […] The mRNA silencing was associate with an acute ˜50-60% decrease of serum total cholesterol (FIGS. 10A and 10B) lasting 10 days, with a gradual return to pre-dose levels by ˜3 weeks (FIG. 10B).
(§2) Phosphorothioate modifications at the 3′ ends of both sense and antisense strands of a dsRNA can protect against exonucleases. 2′OMe and 2′F modifications in both the sense and antisense strands of a dsRNA can protect against endonucleases. AD-1a2 (see Table 5b) contains 2′OMe modifications on both the sense and antisense strands. Experiments were performed to determine if the inherent stability (as measured by siRNA stability in human serum) or the degree or type of chemical modification (2′OMe versus 2′F or a mixture) was related to either the observed rat efficacy or the duration of silencing effects. Stability of siRNAs with the same AD-1a2 core sequence, but containing different chemical modifications were created and tested for activity in vitro in primary Cyno monkey hepatocytes. A series of these molecules that maintained similar activity as measured by in vitro IC50 values for PCSK9 silencing (Table 5b), were then tested for their stability against exo and endonuclease cleavage in human serum. Each duplex was incubated in human serum at 37° C. (a time course), and subjected to HPLC analysis. […] Sequences AD-1a3, AD-1a5, and AD-1a4, which were more heavily modified (see chemical modifications in Table 5) all had T ½'s greater than 24 hours. […] Blood was collected from animals at various days post-dose, and total cholesterol concentrations were measured. […]

Data set [2] concerns PCSK9 mRNA. The data set is described as follows: PCSK9 silencing in primary cynomolgus monkey hepatocytes (dilution series from 30 nM, PCSK9/GAPDH mRNA). The format is cell-based. As for the experimental part:
Primary cynomolgus monkey hepatocytes (cryopreserved) were obtained from In vitro Technologies, Inc. (Baltimore, Md., USA, cat No M00305) and cultured in InVitroGRO CP Medium (cat No Z99029) at 37° C. in an atmosphere with 5% CO2 in a humidified incubator.
For transfection with siRNA, primary cynomolgus monkey cells were seeded on Collagen coated plates (Fisher Scientific, cat. No. 08-774-5) at a density of 3.5×10^4 cells/well in 96-well plates and transfected directly. Transfection of siRNA (eight 2-fold dilution series starting from 30 nM) in duplicates was carried out with lipofectamine 2000 (Invitrogen GmbH, Karlsruhe, Germany, cat. No. 11668-019) as described by the manufacturer.
16 hours after transfection medium was changed to fresh InVitroGRO CP Medium with Torpedo Antibiotic Mix (In vitro Technologies, Inc, cat. No Z99000) added.
24 hours after medium change primary cynomolgus monkey cells were lysed and PCSK9 mRNA levels were quantified with the Quantigene Explore Kit (Genosprectra, Dumbarton Circle Fremont, USA, cat. No. QG-000-02) according to the protocol. PCSK9 mRNA levels were normalized to GAPDH mRNA. Normalized PCSK9/GAPDH ratios were then compared to PCSK9/GAPDH ratio of lipofectamine 2000 only control.

The test system of data set [3] is primary human blood monocytes (hPBMC). The data set is described as follows: IFN-alpha induction in primary human blood monocytes (hPBMC). As to conditions: for IFN-α Induction: first word of the cell IFN-α/TNF-α Induction (Yes/No); for IFN-alpha induction: human primary blood monocytes. The format is cell-based. As for the experimental part: as §1
Data set [4] relates to PCSK9 mRNA. The data set is described as follows: In vitro screening of modified dsRNAs targeted to PCSK9 (Table 2b; cell type not given). As to conditions: 30 nM siRNA. The data set is classed as cell-based. A digest of the protocol: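 Activity is reported as percent PCSK9 transcript remaining versus an unrelated control duplex, from eight datapoints per siRNA. Knockdown was read by Quantigene branched-DNA assay with GAPDH normalization 24 h after lipofectamine 2000 transfection of 30 nM siRNA.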

Data set [5] in a line: siRNA stability in human serum at 37° C., HPLC analysis. The format is in vitro ADME. As for the experimental part: as §2
The subject of data set [6] is PCSK9 mRNA. Description: PCSK9 siRNA screening in HepG2 cells (lipofectamine 2000 transfection, PCSK9 mRNA by Quantigene, normalized to GAP-DH). The format is cell-based, human. In short, it runs like this: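 PCSK9 silencing was assessed in HepG2 cells by lipofectamine 2000 siRNA transfection in 96-well plates. Twenty-four hours later, lysates were analyzed with the Quantigene Explore Kit, with PCSK9 signal normalized to GAP-DH. Eight datapoints were collected per siRNA, and remaining transcript was expressed as a percentage of cells treated with an unrelated control siRNA duplex.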

Data set [7] is described as follows: IFN-alpha activation in mice, siRNA formulated into liposomes. The data set is classed as in vivo, mouse.
Where [8] appears, read: PCSK9 silencing in primary cynomolgus monkey hepatocytes, approximate IC50, read-out: Primary Cynomolgus Monkey Hepatocytes ~IC50.
The mark [9] stands for this setting: primary cynomolgus monkey hepatocytes, read-out: IC50 in Cynomolgous monkey Hepatocyte [nM]s.

In the oligonucleotide strings, read from the 5' end, every base follows the letter of its sugar. An asterisk marks phosphorothioate; unmarked linkages are phosphodiester. Other units and linkages are bracketed, terminal groups are in braces. A string of capitals states the bases alone. d = 2'-deoxy (DNA); m = 2'-O-methyl; r = 2'-OH (RNA); {P} = phosphate; f = 2'-fluoro

Data on five substances can be found in US20120016009A1, “Optimized Methods For Delivery Of DSRNA Targeting The PCSK9 Gene” (priority 2008, published 2012).

What is called IC50 is the concentration that inhibits the measured activity by half. With “AD-1a3: modified dsRNA, AD-1a2 core sequence, Alt 2′ F, 2′ OMe both strands; SEQ ID NO:1509/1510 (chain 1 GCCUGGAGUUUAUUCGGAATT; chain 2 {P}-mUfUmCfCmGfAmAfUmAfAmAfCmUfCmCfAmGfGmCdT*dT; chain 1: sugars from the 5' end fmfmfmfmfmfmfmfmfmfdd, backbone not given here)”, in data set [1], the TNF-alpha induction result is recorded as “negative” and the “TNF-α Induction” value is reported as “No/No”. Besides, in the data set on PCSK9, the “decrease of total cholesterol day 2 post-dose” value (“decrease” for short) is approximately 60%. Moreover, the half-inhibitory concentration (IC50) in the data set on PCSK9 mRNA [2] (setting [8]) was 0.07 to 0.2 nM. Also, in data set [3], the “IFN-α Induction” value is listed as “No/No” and the IFN-alpha induction entry was “negative”.
Consider “AD-10792: 2′OMe modified dsRNA targeting PCSK9 at 1091-1109, SEQ ID NO:1305/1306 (chain 1 rGmCmCmUrGrGrArGmUmUmUrAmUmUmCrGrGrArAdT*dT; chain 2 rUrUrCrCrGrArAmUrArArArCrUrCmCrArGrGrCdT*dT)”, for which the “Remaining mRNA in % of controls at siRNA conc. of 30 nM” value in the data set on PCSK9 mRNA [4] turned out to be 15%. In addition, in data set [1] (listed as AD-1a2), the TNF-alpha induction result is “negative”. In addition, the “TNF-α Induction” value in data set [1] is reported as “No/No”. Further, in data set [5], the “T ½ in pooled human serum” value was approximately 7 h. The IC50 in the data set on PCSK9 mRNA [6] is 0.1 nM; in the data set with PCSK9 mRNA [2] (setting [8]) it was 0.07 to 0.2 nM; in the data set with PCSK9 mRNA [2] (setting [9]), 0.1 nM. In addition, the “decrease” value in the data set on PCSK9 is approximately 60%. In addition, the “activity in vitro in primary monkey hepatocytes” value in the data set with PCSK9 mRNA [2] is on record as “active in vitro”. In addition, the “IFN-alpha activation in mice” value in data set [7] is on record as “neither AD-1a2, nor AD-2a1 activated IFN-alpha”. The “IFN-α Induction” value in data set [3] was “No/No”. In data set [3] (listed as AD-1a2), the IFN-alpha induction entry is reported as “negative”.
As to “AD-1a4: modified dsRNA, sense 2′ OMe, antisense 2′ F all Py, 5′ Phosphate; SEQ ID NO:1511/1512 (sense rGmCmCmUrGrGrArGmUmUmUrAmUmUmCrGrGrArAdT*dT; antisense {P}-fUfUfCfCrGrArAfUrArArAfCfUfCfCrArGrGfCdT*dT)”, in data set [1], the TNF-alpha induction entry was “negative” and the “TNF-α Induction” value was “No/No”. Moreover, in the data set on PCSK9, the “decrease” value is approximately 60%. Moreover, the IC50 in the data set on PCSK9 mRNA [2] (setting [8]) was 0.07 to 0.2 nM. In addition, in data set [3], the “IFN-α Induction” value is recorded as “No/No” and the IFN-alpha induction entry was “negative”.
Turning to “AD-1a5: modified dsRNA, sense 2′ F, antisense 2′ F all Py, 5′ Phosphate; SEQ ID NO:1513/1514 (sense GCCUGGAGUUUAUUCGGAATT; antisense {P}-fUfUfCfCrGrArAfUrArArAfCfUfCfCrArGrGfCdT*dT; sense: chemistry not given here; sense strand 2'-F modified, exact pattern not fully given)”, in data set [1], the TNF-alpha induction entry is “negative” and the “TNF-α Induction” value is “No/No”. In addition, the “decrease” value in the data set on PCSK9 is on record as approximately 60%. In addition, the IC50 in the data set on PCSK9 mRNA [2] (setting [8]) lay within 0.07 to 0.2 nM. In addition, in data set [3], the “IFN-α Induction” value is given as “No/No” and the IFN-alpha induction result was “negative”.
For the substance “AD-9680: dsRNA targeting the PCSK9 gene at 3530-3548; sense SEQ ID NO:1227, antisense SEQ ID NO:1228 (sense mUmUmCmUrArGrAmCmCmUrGmUmUmUmUrGmCmUmUdT*dT; antisense rArArGmCrArArArAmCrArGrGrUrCmUrArGrArAdT*dT)”, in data set [1], the TNF-alpha induction result is given as “negative” and the “TNF-α Induction” value is reported as “No/No”. This substance also displayed an IC50 in the data set on PCSK9 mRNA [6] of 0.1 nM. The “Mean percent remaining mRNA transcript at siRNA concentration/in cell type 3 nM/HepG2” value in the data set on PCSK9 mRNA [6] (3 nM siRNA) came to 22%. The “Mean percent remaining mRNA transcript at siRNA concentration/in cell type 30 nM/HepG2” value in the data set with PCSK9 mRNA [6] (30 nM siRNA) worked out at 12%. In addition, the IC50 with PCSK9 mRNA [2] (setting [8]) was 0.07 to 0.2 nM. Besides, in the data set on PCSK9 mRNA [2] (setting [9]), the IC50 came out at 0.1 nM. For the same substance, in the data set with PCSK9 mRNA [2], the “activity in vitro in primary monkey hepatocytes” value is on record as “highly active”. Also, the “IFN-alpha activation in mice” value in data set [7] was “neither AD-1a2, nor AD-2a1 activated IFN-alpha”. In data set [3], the “IFN-α Induction” value is on record as “No/No” and the IFN-alpha induction entry was “negative”.
